In patent publication US20230089267A1, “Compositions and Methods For Reducing Immune Intolerance and Treating Autoimmune Disorders” (Lapix Therapeutics, Inc., priority 2021, published 2023):

Key:
[1] = Pilot stability study of oral solution with HPBCD; type: physicochemical
Description: Oral dosing solutions of different concentrations of Compound 2 were compounded ranging from 0.02 mg/ml to 3 mg/ml using a 1:80 ratio of Compound 2:HPBCD. Briefly, the compounding was performed by weighing and dissolving HPBCD in sterile HPLC grade water. Then, Compound 2 was weighed and added to the HPBCD solution in an appropriate container. To enhance dissolution, sonication and magnetic stirring were alternated to obtain a clear solution. Then, the solution was dispensed into PET amber bottles, appropriately labeled and stored under refrigeration until dosing.
A pilot stability study was performed on a 0.7 mg/ml Compound 2 oral solution at three temperatures: −20° C., 4° C., and room temperature (RT).
Samples were also subjected to three freeze-thaw cycles (−20° C. to room temperature). Solutions were evaluated for clarity. […] The potency of these solutions was also determined using an LC/MS assay.

[2] = system: MOG35-55-induced murine EAE model; experiment: Induction/maintenance treatment paradigm in MOG35-55-induced murine EAE model (Example 9); type: in vivo, mice
Description: Compound 2, natalizumab and DMF were prepared as described in Example 8. Table 5 (see Example 4) details the expected clinical symptoms and scoring criteria used in this study.
This study was designed to evaluate the therapeutic effects of Compound 2 versus natalizumab in a treatment induction/maintenance paradigm (induction cohort), and Compound 2 versus DMF after natalizumab (maintenance cohort). In the induction cohorts, animals were randomized 2:1:1 natalizumab:Compound 2:control when they reached a score of 2.5, as per FIG. 6A. Animals in the natalizumab cohort were given 100 μg natalizumab/mouse every 3 days for 3 doses before being randomized to the maintenance cohort. Animals randomized into the maintenance cohort after natalizumab received maintenance doses of DMF or Compound 2 (1:1 randomization), as per their group assignment for 14 days. Animals in the Compound 2 induction cohort were dosed with 30 μg Compound 2/mouse SC QD for a maximum of 7 days, or 3 consecutive days of disease score <2.5, at which time they were placed on a maintenance dose of 3 μg/mouse SC QD for 14 days. All animals in all groups were monitored for 14 days after the last dose for disease score and survival.
Disease control (induction therapy): Disease control was defined as maintaining a clinical score of 2.5 or less after randomization. Animals in the different treatment groups were monitored after the 2:1:1 randomization. Clinical scores were recorded daily for all animals and plotted over time. A score of >2.5 was recorded as an event and analyzed by survival analysis in GraphPad Prism 9. Animals not reaching a clinical score of 2.5 by the end of the induction period (day 7) were assigned a score of zero for the survival analysis.
Survival (induction therapy): Death due to disease (clinical score 5) during the treatment induction period was recorded as an event “1”, animals surviving until the end of the induction period, day 7 after randomization, were censored on day 7 for the purposes of survival analysis.
Disease control (maintenance therapy): At the end of the induction period with natalizumab, animals were randomized 1:1 to the DMF maintenance group or Compound 2 maintenance group as per FIG. 6A. Animals were dosed for 14 days, and clinical scores were monitored daily.
Survival (maintenance therapy): Death by disease (clinical score of 5) was recorded as an event “1”, death due to ulceration or ex vivo analysis was recorded as “0”. Animals surviving until the end of the study were recorded as “0” on the last day of the study. Survival analysis was done in GraphPad Prism 9.

[3] = system: Foxp3+/CD4+ T-cells of MS patients; experiment: PBMCs of multiple sclerosis patients treated ex vivo; type: cell-based, human; conditions: up to 2.5 μM, five days, six subjects
Description: Total human PBMCs were isolated from six subjects with confirmed diagnosis of MS. On Day 0, 2×10^5 cells/well were incubated in a 96 round bottomed-well plate alone or with up to 2.5 μM Compound 2 for five days. On Day 5, cells were collected, washed and stained for surface staining (CD3, CD4), then viability dye to exclude dead cells. Intranuclear staining was performed after cell fixation and permeabilization for transcription factor FoxP3. Cells were washed and fixed for acquisition by Attune NXT flow cytometer. Data were analyzed by FlowJov10.

[4] = system: MOG35-55-induced murine EAE model; experiment: MOG35-55-induced murine EAE model versus standards of care (Example 4); type: in vivo, mice
Description: Experimental autoimmune (allergic) encephalomyelitis (EAE) is considered the best non-clinical model of multiple sclerosis (MS). EAE is characterized by immune responses against CNS tissue and can be induced in animals by immunizing them against proteins of the CNS. In the active EAE model, mice are immunized with MOG35-55 peptide emulsified in Complete Freund's Adjuvant (CFA) by subcutaneous injection at the tail base (0.1 mL of emulsion/mouse) under anesthesia. On the day of injection (Day 0) and 2 days later, mice receive an intraperitoneal injection of Pertussis Toxin (PT) in PBS at 600 ng/mouse/dose (0.1 mL).
Symptoms typically develop in mice 9-14 days after immunization (Day 0). Daily observation and scoring of mice start on Day 9 and continue until the end of the study. Table 5 details the expected clinical symptoms and the scoring criteria used in this study.
To evaluate the therapeutic effects of Compound 2, treatment was initiated after the first clinical symptoms were observed. […] Mice in all groups were monitored and scored daily for clinical symptoms.
At the end of the study, spleens were collected from a representative sample of mice from each group for splenocyte analysis. A single-cell suspension was prepared for cellular phenotyping by flow cytometry. Cells were stained and gated for CD4+ T-cells. Percent FoxP3+/CD4+ T-cells were evaluated by flow cytometry.

DSS-induced IBD model = experiment: Dextran sulfate sodium (DSS)-induced IBD model; type: in vivo, mice; conditions: 30 μg SC for 7 days then 3 μg SC for 7 days, both disease cycles
Description: IBD was induced in 6-8-week-old female C57/B6 mice by adding 3% DSS (Sigma Aldrich) in their drinking water for 3 days on 2 different occasions (days 0, 1, and 2 of the induction phase and days 11, 12, and 13 of the re-exposure phase). One group (n=5) was treated with Compound 2 (30 μg SC for 7 days) during the disease induction phase followed by a lower dose of Compound 2 (3 μg SC for 7 days) during the disease re-exposure phase. […] Mice body weight was monitored daily starting on day 0.

[5] = Compound 2 induction followed by Compound 2 maintenance

Question: Which results are given for `N[C@@H](CNC(=O)Cc1ccc(OCc2cccc3ccccc23)cc1)C(=O)O` [Compound 2, (S)-2-Amino-3-(2-(4-(naphthalen-1-ylmethoxy)phenyl)acetamido)propanoic acid]?
Answer: potency on storage ([1]; 0.7 mg/ml oral solution, −20° C., 4° C. and room temperature): Potency was maintained over a minimum period of three months at all storage conditions; potency after storage and freeze-thaw cycles, LC/MS assay ([1]; 3-month storage and several freeze-thaw cycles): Potency was maintained; clarity after three freeze-thaw cycles ([1]; oral solution, −20° C. to room temperature): No precipitation was observed, and all solutions maintained clarity; clinical score on the last day of dosing [2, 5]: 2.2 (SD=0.3); mean score on the first day of maintenance therapy [2, 5]: 2.3 (SD=0.4); mice showing clinical score improvement and switched to maintenance before end of induction period ([2]; induction period): at least 4 out of the 10; animals that survived the treatment induction period ([2]; induction period, day 7 after randomization): 9/9; last measured score, day 7 after initiation of maintenance ([2]; maintenance after natalizumab induction): 2.5 (SD=0); mortality rate in maintenance cohort ([2]; maintenance after natalizumab induction, n=4 in each group): 0%; survival in maintenance cohort ([2]; maintenance after natalizumab induction, to end of study): All animals randomized to Compound 2 maintenance after natalizumab induction survived until the end of the study; mean clinical score by day 7 of induction ([2]; randomized at score 2.5, Compound 2 30 μg SC): 2.25 (SD=0.26); animals that progressed to a clinical score >2.5 during induction ([2]; randomized at score 2.5, natalizumab 100 μg/mouse every 3 days, Compound 2 30 μg SC): 0/10; MS patients whose T-cells responded (increase in percentage of Foxp3+/CD4+ T-cells) [3]: five out of six; disease control after switching from anti-alpha4 integrin ([4]; 10-μg oral dose following one or two injections of anti-alpha4 integrin): resulted in disease control after disease onset; control of MS symptoms after disease onset versus glatiramer acetate ([4]; all doses and regimens): more effective than glatiramer acetate; control of MS symptoms after disease onset versus anti-alpha4 integrin ([4]; daily 10-μg oral dose): as effective as a full regimen of anti-alpha4 integrin; MS clinical score after disease onset ([4]; doses of Table 6, treatment from clinical score 1): reduced the MS clinical score after disease onset in a dose-dependent manner; body weight change (DSS-induced IBD model): less weight loss and more rapid recovery than untreated animals
